In assay [1] the target is T1, C-CBL (46-435) (Homo sapiens, UniProt P22681).
T1 construct: N-terminal biotinylated WT CBL-B (36-427) and C-CBL (46-435) were captured on a streptavidin (SA) coated sensor chip
T1 sequence (P22681 46-435): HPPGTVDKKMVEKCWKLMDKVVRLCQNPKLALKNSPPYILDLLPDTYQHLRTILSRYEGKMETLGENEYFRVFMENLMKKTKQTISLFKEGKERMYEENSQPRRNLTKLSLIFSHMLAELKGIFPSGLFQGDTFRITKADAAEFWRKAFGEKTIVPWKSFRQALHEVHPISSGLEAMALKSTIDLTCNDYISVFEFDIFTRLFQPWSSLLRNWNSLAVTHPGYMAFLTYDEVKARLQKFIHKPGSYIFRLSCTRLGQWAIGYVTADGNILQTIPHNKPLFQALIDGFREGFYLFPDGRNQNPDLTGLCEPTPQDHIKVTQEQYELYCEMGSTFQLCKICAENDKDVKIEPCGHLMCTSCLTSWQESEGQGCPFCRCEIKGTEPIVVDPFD
Description: Surface Plasmon Resonance (SPR) assay, binding affinity and kinetics, C-CBL. Particulars: SPR at 10° C., biotinylated C-CBL (46-435) on streptavidin chip; geometric mean; read-out: C-CBL SPR Kd (nM) GMean. As for the experimental part:
(§1) Surface Plasmon Resonance (SPR) Assay
(§2) The purpose of the SPR assay is to evaluate the binding affinity and kinetics of the compound of disclosure binding to CBL-B and C-CBL.
(§3) The binding affinity and kinetics of compound binding to CBL-B and C-CBL were measured by Surface Plasmon Resonance (SPR) using either Biacore S200, 8K or 8K+ (Cytiva, Marlborough, MA) instruments. N-terminal biotinylated WT CBL-B (36-427) and C-CBL (46-435) were captured on a streptavidin (SA) coated sensor chip to achieve approximately 5000 to 6000 RUs of surface density. Un-functionalized SA surfaces with no immobilized protein served as reference for binding kinetic analysis. All the samples were prepared in buffer consisting of 10 mM HEPES, 150 mM NaCl, 0.05% Tween-20, 5% glycerol, […], 2% DMSO, pH 7.2. The same buffer was used as the running buffer during the experiments. Compound binding kinetics were measured in either multi-cycle or single-cycle kinetic format.
(§4) Multi-cycle kinetic analysis (MCK): A two-fold, 10-point serial dilution of test compounds was set-up in a 96-well microplate (Greiner; Cat #650101) with a top concentration of either 10 μM or 100 μM. Binding kinetics was measured at 10° C. by injecting serial dilution of compounds onto both reference and CBL immobilized channels at a flow rate of 100 μL/min and association time of 90 seconds. Compound dissociation was monitored for >400 seconds during each cycle. No additional regeneration was used. DMSO calibration curve was obtained before and after compound analysis by injecting 0-4% of DMSO in assay buffer. A suitable compound with known affinity and kinetics was tested once in every experiment as a positive control to assess activity of the captured proteins on the surface.
(§5) Single-cycle kinetic analysis (SCK): A 3-fold, 6-point serial dilution of compounds was set-up in a deep 96-well microplate (Greiner Bio; Cat #780201) with the highest concentration of 1 μM (concentration range: […]). Binding kinetics was measured at 10° C. by injecting serial dilutions of compounds in increasing order onto reference as well as CBL immobilized channels at a flow rate of 100 μL/min and association time of 120 seconds. Compound dissociation was monitored for >5400 seconds. Two buffer blanks were also run in a single-cycle kinetics format before the compound run for double referencing. No additional regeneration was used. DMSO calibration curve was obtained before and after compound analysis by injecting 0-4% of DMSO in the assay buffer. A suitable compound with known affinity and kinetics was tested once in every experiment as a positive control to assess activity of the captured proteins on the surface.

The target of assay [2] is T2, C-CBL (residues 46-435) (Homo sapiens, UniProt P22681).
T2 construct: Purified CBL-B (residues 36-427) and C-CBL (residues 46-435) proteins from baculovirus-infected insect cells; made in house; host or cells: baculovirus-infected insect cells
T2 sequence (P22681 46-435): T1 sequence (P22681 46-435)
Description: Ligand Displacement Assay (LDA), HTRF competitive binding against BODIPY-labeled fluorescent tracer, C-CBL. Particulars: geometric mean of the number of tests, read-out: C-CBL Ki (nM) GMean. In a few lines:
(§6)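 First, the insect-cell-expressed protein is biotinylated at its amino-terminal AviTag with BirA and coupled to SA-Tb. Next, the tracer KD is determined for each protein. Finally, compounds are titrated three-fold in duplicate […], at 2% DMSO, and Ki is reported as a geometric mean.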

For assay [3], the target named is T3, CBL-B (residues 36-427) (Homo sapiens, UniProt Q13191).
T3 construct: Purified CBL-B (residues 36-427) and C-CBL (residues 46-435) proteins from baculovirus-infected insect cells; made in house; host or cells: baculovirus-infected insect cells
Nature of the assay: Ligand Displacement Assay (LDA), HTRF competitive binding against BODIPY-labeled fluorescent tracer, CBL-B. Particulars: geometric mean of the number of tests, read-out: CBL-B Ki (nM) GMean. In a few lines:
as §6
In general terms: In TR-FRET formats the signal depends on donor and acceptor labels being close together.

The target in assay [4] is T4, WT CBL-B (36-427) (Homo sapiens, UniProt Q13191).
T4 construct: N-terminal biotinylated WT CBL-B (36-427) and C-CBL (46-435) were captured on a streptavidin (SA) coated sensor chip
Description: Surface Plasmon Resonance (SPR) assay, binding affinity and kinetics, CBL-B. Particulars: SPR at 10° C., biotinylated WT CBL-B (36-427) on streptavidin chip; geometric mean; read-out: CBL-B SPR Kd (nM) GMean. The protocol:
as §1, §2, §3, §4, §5

Molecules are shown by their SMILES.

A word on the Kd: it is a measure of binding affinity in units of concentration. As usually defined, the Ki is the dissociation constant of the complex between target and ligand, obtained from inhibition or displacement. With `C[C@@H]1CN([C@@H](C)c2nc(C(F)(F)F)cc3c(-c4cccc(C5(Cc6nncn6C)COC5)c4)n[nH]c23)CCO1` (single isomer, unassigned) [Example D49], the Kd came out at 82 nM in assay [1] and 5.9 nM in assay [4]. The inhibition constant Ki in assay [2] worked out at 104 nM; in assay [3], 17.8 nM.
`C[C@@H]1CN([C@H](C)c2nc(C(F)(F)F)cc3c(-c4cccc(C5(Cc6nncn6C)COC5)c4)n[nH]c23)CCO1` (single isomer, unassigned) [Example D50]: the values for the Kd in assay [1] and in assay [4] were 30.1 nM and 2.6 nM, respectively. The Ki in assay [2] came out at 30.7 nM; in assay [3], 9 nM.
For `C[C@@H](c1nc(C(F)(F)F)cc2c(-c3cccc(C4(Cc5nncn5C)COC4)c3)n[nH]c12)N1CCNC(=O)C1` (single isomer, unassigned) [Example D51], the values for the Kd in assay [1] and in assay [4] were 15 nM and 2.7 nM, respectively. For the same compound, the Ki in assay [2] came out at 19.6 nM; in assay [3], 5.7 nM.
On to `C[C@H](c1nc(C(F)(F)F)cc2c(-c3cccc(C4(Cc5nncn5C)COC4)c3)n[nH]c12)N1CCNC(=O)C1` (single isomer, unassigned) [Example D52], for which the dissociation constant (Kd) was 79.1 nM in assay [1] and 10.1 nM in assay [4]. Further, the figures for the inhibition constant Ki in assay [2] and in assay [3] were 118 nM and 31.9 nM, respectively.
As to `C[C@@H](c1nc(C(F)(F)F)cc2c(-c3cccc(C4(Cc5nncn5C)COC4)c3)n[nH]c12)N1CCNCC1` (single isomer, unassigned) [Example D53], the Kd in assay [1] is 36.1 nM; in assay [4], 3.2 nM. For the same compound, the Ki in assay [2] is 36.9 nM; in assay [3] it was 11.8 nM.
In the same order, the values of `C[C@H](c1nc(C(F)(F)F)cc2c(-c3cccc(C4(Cc5nncn5C)COC4)c3)n[nH]c12)N1CCNCC1` (single isomer, unassigned) [Example D54] are 61.7 nM, 8.2 nM, 80 nM and 20.9 nM.
As for `C[C@@H](c1nc(C(F)(F)F)cc2c(-c3cccc([C@H](c4nncn4C)C4CCC4)c3)n[nH]c12)N1CCNC(=O)C1` (single isomer, unassigned) [Example D88], the values for the dissociation constant Kd in assay [1] and in assay [4] were 34.1 nM and 5.7 nM, respectively. Also, the Ki in assay [2] amounted to 35.2 nM; in assay [3], 3.9 nM.
In the same order, the values of `C[C@H](c1nc(C(F)(F)F)cc2c(-c3cccc([C@H](c4nncn4C)C4CCC4)c3)n[nH]c12)N1CCNC(=O)C1` (single isomer, unassigned) [Example D89] are 307 nM, 11 nM, 290 nM and 20.9 nM.
Take `C[C@@H](c1nc(C(F)(F)F)cc2c(-c3cccc(C4(Cc5nncn5C)COC4)c3)n[nH]c12)N1CC[C@H](F)C1` (single isomer, unassigned) [Example D97]: the equilibrium dissociation constant (Kd) in assay [1] is 230 nM; in assay [4], 31.9 nM. The values for the Ki in assay [2] and in assay [3] were 139 nM and 25 nM, respectively.
As for `C[C@@H](c1nc(C(F)(F)F)cc2c(-c3cccc(C4(Cc5nncn5C)COC4)c3)n[nH]c12)N1CC[C@H](F)C1` (single isomer, unassigned) [Example D98], the Kd is 217 nM in assay [1] and 46 nM in assay [4]. Besides, the Ki in assay [2] is 110 nM; in assay [3] it was 25.5 nM.
For the compound `C[C@H](CO)c1nc(C(F)(F)F)cc2c(-c3cccc([C@H](c4nncn4C)C4CCC4)c3)n[nH]c12` (single isomer, unassigned) [Example K3, (2ξ)-2-[3-{3-[(ξ)-cyclobutyl(4-methyl-4H-1,2,4-triazol-3-yl)methyl]phenyl}-5-(trifluoromethyl)-1H-pyrazolo[3,4-c]pyridin-7-yl]propan-1-ol], the results for the Kd in assay [1] and in assay [4] were 160 nM and 4 nM, respectively. Further, the Ki was determined as 96.5 nM in assay [2] and 11 nM in assay [3].
Consider `C[C@@H](CO)c1nc(C(F)(F)F)cc2c(-c3cccc([C@H](c4nncn4C)C4CCC4)c3)n[nH]c12` (single isomer, unassigned) [Example K4, (2ξ)-2-[3-{3-[(ξ)-cyclobutyl(4-methyl-4H-1,2,4-triazol-3-yl)methyl]phenyl}-5-(trifluoromethyl)-1H-pyrazolo[3,4-c]pyridin-7-yl]propan-1-ol], for which the Kd stood at 207 nM in assay [1] and 8.3 nM in assay [4]. Further, the figures for the Ki in assay [2] and in assay [3] were 156 nM and 17.6 nM, respectively.
`CC(CN)c1nc(C(F)(F)F)cc2c(-c3cccc(C4(Cc5nncn5C)COC4)c3)n[nH]c12` (single isomer, unassigned) [Example K6, (2ξ)-2-[3-(3-{3-[(4-methyl-4H-1,2,4-triazol-3-yl)methyl]oxetan-3-yl}phenyl)-5-(trifluoromethyl)-1H-pyrazolo[3,4-c]pyridin-7-yl]propan-1-amine]: the dissociation constant (Kd) in assay [1] was 125 nM; in assay [4] it was 11.3 nM. For the same compound, the inhibition constant (Ki) in assay [2] turned out to be 78.6 nM; in assay [3], 26.5 nM.
Turning to `CC(CN)c1nc(C(F)(F)F)cc2c(-c3cccc(C4(Cc5nncn5C)COC4)c3)n[nH]c12` (single isomer, unassigned) [Example K7, (2ξ)-2-[3-(3-{3-[(4-methyl-4H-1,2,4-triazol-3-yl)methyl]oxetan-3-yl}phenyl)-5-(trifluoromethyl)-1H-pyrazolo[3,4-c]pyridin-7-yl]propan-1-amine], the figures for the Kd in assay [1] and in assay [4] were 94.9 nM and 8 nM, respectively. The Ki in assay [2] is 97.8 nM; in assay [3] it was 26.6 nM.
In the same order, the values of `CC(O)c1nc(C(F)(F)F)cc2c(-c3cccc(C4(Cc5nncn5C)COC4)c3)n[nH]c12` (single isomer, unassigned) [Example K10, (1ξ)-1-[3-(3-{3-[(4-methyl-4H-1,2,4-triazol-3-yl)methyl]oxetan-3-yl}phenyl)-5-(trifluoromethyl)-1H-pyrazolo[3,4-c]pyridin-7-yl]ethan-1-ol] are 291 nM, 23.5 nM, 219 nM and 45.1 nM.
Take `CC(O)c1nc(C(F)(F)F)cc2c(-c3cccc(C4(Cc5nncn5C)COC4)c3)n[nH]c12` (single isomer, unassigned) [Example K11, (1ξ)-1-[3-(3-{3-[(4-methyl-4H-1,2,4-triazol-3-yl)methyl]oxetan-3-yl}phenyl)-5-(trifluoromethyl)-1H-pyrazolo[3,4-c]pyridin-7-yl]ethan-1-ol]: the equilibrium dissociation constant (Kd) in assay [1] is 199 nM; in assay [4], 11.7 nM. Besides, the Ki in assay [2] was found to be 119 nM; in assay [3] it was 31.2 nM.
Consider `CC(CN)c1nc(C(F)(F)F)cc2c(-c3cccc([C@H](c4nncn4C)C4CCC4)c3)n[nH]c12` (single isomer, unassigned) [Example K14], for which the Kd in assay [1] turned out to be 244 nM; in assay [4], 20.6 nM. The results for the inhibition constant Ki in assay [2] and in assay [3] were 195 nM and 24.8 nM, respectively.

The record behind these values is patent publication US20260125375A1 (Pfizer Inc., priority 2022, published 2026).
